What was measured:
[1] = tested on: interaction of NP with VP35; type: biochemical, Ebola virus
NP = type: cell-based, Ebola virus
HIV gp160 = type: cell-based

CC(=O)N[C@H]1[C@@H](OCc2ccccc2)O[C@H](CO)[C@H](O)[C@@H]1O[C@@H]1O[C@H](CO)[C@H](O)[C@H](O)[C@H]1O [benzyl 2-acetamido-2-deoxy-3-O-b-D-galactopyranosyl-a-D-galactopyranoside]
effect in the in vitro transcription/translation system (NP synthesis or association of NP with VP35 and VP24) [1]: without any effect

OC[C@H]1NC[C@@H](O)[C@@H](O)[C@@H]1O [deoxymannojirimycin]
effect on NP migration (glycosylation) in NP-transfected 293 cells (NP): No effect

CC(=O)N[C@H]1[C@@H](OCc2ccccc2)O[C@H](CO)[C@H](O)[C@@H]1O [benzyl 2-acetamido-2-deoxy-a-D-galactopyranoside]
effect in the in vitro transcription/translation system (NP synthesis or association of NP with VP35 and VP24) [1]: without any effect

O=C(N[C@H]1[C@H](OCc2ccccc2)O[C@H](CO)[C@@H](O)[C@@H]1O)OCc1ccccc1 [benzyl Z-b-D-glucosaminide]
effect in the in vitro transcription/translation system (NP synthesis or association of NP with VP35 and VP24) [1]: without any effect

C[C@H]1CCC/C=C/[C@@H]2C[C@H](O)C[C@H]2[C@H](O)/C=C/C(=O)O1 [Brefeldin A]
effect in the in vitro transcription/translation system (NP synthesis or association of NP with VP35 and VP24) [1]: without any effect

CC(=O)N[C@H]1[C@@H](Oc2ccccc2)O[C@H](CO)[C@H](O)[C@@H]1O [phenyl N-acetyl-a-D-galactosaminide]
effect in the in vitro transcription/translation system (NP synthesis or association of NP with VP35 and VP24) [1]: without any effect

CC(=O)N[C@H]1[C@H](OCc2ccccc2)O[C@H](CO)[C@@H](O)[C@@H]1O [benzyl 2-acetamido-2-deoxy-b-D-glucopyranoside]
effect in the in vitro transcription/translation system (NP synthesis or association of NP with VP35 and VP24) [1]: without any effect

CCCCCCCCO[C@H]1O[C@H](COC(C)=O)[C@@H](OC(C)=O)[C@H](OC(C)=O)[C@@H]1OC(C)=O [AcManα1-OC8, acetylated Manα1-O-octyl]
inhibition of the interaction of NP with VP35 [1]: not seen

tunicamycin
expression of HIV gp160 (HIV gp160): abolished
effect on NP migration (glycosylation) in NP-transfected 293 cells (NP): No effect
synthesis of NP in NP-transfected 293 cells (NP): unaffected

CCCCCCCCO[C@H]1O[C@H](CO)[C@@H](O)[C@H](O)[C@@H]1O [Manα1-OC8, mannose α1-O-octyl]
dose dependence of inhibition of NP/VP35 interaction [1]: dose-dependent
inhibition of NP/VP35 interaction when added after translation [1]: did not inhibit
inhibition of the interaction of NP with VP35 [1]: substantially reduced

O=C(N[C@H]1[C@@H](OCc2ccccc2)O[C@H](CO)[C@@H](O)[C@@H]1O)OCc1ccccc1 [benzyl Z-a-D-glucosaminide]
effect in the in vitro transcription/translation system (NP synthesis or association of NP with VP35 and VP24) [1]: without any effect

From patent US7449190B2 (priority 2002, dated 2008)
